In paper PMC9402746, “A phase I dose escalation, dose expansion and pharmacokinetic trial of gemcitabine and alisertib in advanced solid tumors and pancreatic cancer” (Cancer Chemotherapy and Pharmacology, 2022):
Entries after “also recorded” stand apart in the source; their conditions may differ. Read-outs that look alike come from different tables or passages of the source.

Key:
[1] = Plasma pharmacokinetics of gemcitabine and dFdU without and with alisertib, non-compartmental analysis; assay type: in vivo, human; settings: for Percentage extrapolated AUC0->inf, Mean / Cmax / AUC(0-inf) / AUC(0-t): plasma, gemcitabine 1000 mg/m^2 IV; for Cmax / AUC(0-inf) / AUC(0-t): human, iv; for AUC(0-inf): read-out: AUC0->inf, Mean (converted); for AUC(0-t): read-out: AUC0->last, Mean (converted); for Effect of co-administered alisertib on NCA PK parameters (day 1 vs day 8): paired t test, P > 0.05
Procedure: (§1) Pharmacokinetic sampling was performed on the expanded cohort of subjects with pancreatic cancer treated at the RP2D. Alisertib was not administered on cycle 1, day 1 to enable gemcitabine pharmacokinetic sampling on day 1 and day 2 of cycle 1 in the absence of co-administered alisertib. This served as the reference baseline for comparison to gemcitabine pharmacokinetics when co-administered with alisertib on day 8 of cycle 1. On cycle 1 day 8, alisertib was administered within 10 min of the start of the gemcitabine infusion, and the second (evening) dose of alisertib was not administered to allow for gemcitabine measurement at the 24 h timepoint. Both the parent drug (gemcitabine, dFdC) and the metabolite (dFdU) were measured to evaluate changes in gemcitabine metabolism related to alisertib administration. Pharmacokinetic blood samples were collected with dipotassium ethylenediaminetetraacetic acid (K2EDTA) as the anticoagulant before treatment, immediately after gemcitabine infusion, and at additional pre-specified post-infusion timepoints. Actual timepoints were recorded for PK parameter evaluation. Measurement of plasma gemcitabine, dFdU, and alisertib concentrations are described in the Supplementary Methods.
(§2) Gemcitabine, dFdU and alisertib PK parameters were estimated using non-compartmental analysis (NCA) with Certara Phoenix WinNonlin 8.0 (Princeton, NJ), including mean peak concentration (Cmax) and exposure (Area Under the Curve, AUC). The AUC parameters were estimated using the linear-up-log-down trapezoidal rule. Tests of significance between day 1 and day 8 PK parameters were performed using paired t-tests with GraphPad Prism 6.07 (San Diego, CA).

[2] = Treatment exposures, delays and dose reductions; assay type: in vivo, human
From the text: To proceed to the next cycle, lab parameters included ANC ≥ 1500/mm^3 and platelet count ≥ 100,000/mm^3, and all other toxicity considered by the investigator to be related to therapy with alisertib or gemcitabine must have resolved to grade ≤ 1 or to the subject’s baseline values. […] Thereafter, the subject was re-evaluated to determine continuation eligibility. Dose modification (Table S1B, 1C) was required for cycle initiations delayed > 1 week due to incomplete recovery from treatment-related toxicity.
Median number of cycles per subject was 3 (range 1–13), and median duration of treatment was 2.84 months (range 0.36–13.22). Similar median duration of treatment and cycles delivered were observed between the dose levels (Table S2). Proportion of planned dose received, defined as total dose received divided by total planned dose according to the dose level for alisertib and 1000 mg/m^2 for gemcitabine, was calculated according to each subject (Table S3) and each cycle (Fig. 1).

small cell lung cancer = tested on: small cell lung cancer; parameters: method as in PMID 31655296; settings: cited from earlier work
breast/ovarian cancer = tested on: breast/ovarian cancer; parameters: method as in PMID 30347019; settings: cited from earlier work
[3] = human, in vivo, 28 days
Procedure: This was an open-label phase I clinical trial with two-phase design including a dose escalation and an expansion phase in pancreatic cancer. In the dose escalation phase, a standard 3 + 3 design was used to determine the maximum tolerated dose (MTD) of alisertib in combination with gemcitabine. Alisertib was administered orally twice daily (BID) on days 1–3, 8–10, and 15–17 of a 28-day treatment cycle. Gemcitabine was given concurrently at standard dosing of 1000 mg/m^2 intravenously on days 1, 8, 15. A starting dose of alisertib 20 mg BID was used in the dose escalation phase and was escalated in cohorts of at least three evaluable subjects at 30 mg BID, 40 mg BID, and 50 mg BID until MTD or the highest feasible dose level (Table S1). The dose of 50 mg BID was the highest dose allowable and was previously reported as the recommended phase II dose (RP2D) for alisertib monotherapy. In the expansion phase, subjects received the MTD or RP2D following the same cycle schedule. Dose adjustments were allowed for both drugs (Table S1B, 1C).
The MTD was defined as the highest dose tested in which fewer than 33% of subjects experienced DLT attributable to the study drugs, when at least six subjects were treated at that dose and evaluable for toxicity.
DLT was defined as any related (possibly, probably, or definitely) grade 3 non-hematologic toxicity or any attributable grade 4 toxicity. […]

[4] = Plasma pharmacokinetics of alisertib, non-compartmental analysis; assay type: in vivo, human
Procedure: as §1, §2

[5] = tested on: Aurora Kinase A (AKA) compared to Aurora Kinase B; parameters: method as in PMID 20382844, PMID 21556291; settings: cited from earlier work
selected CYPs = tested on: selected CYPs; parameters: method as in PMID 31911485; settings: in vitro; cited from earlier work
[6] = parameters: method as in PMID 22753585, PMID 24879333, PMID 25302940; settings: twice daily for 7 days in a 21-day cycle; cited from earlier work
[7] = tested on: multiple solid organ malignancies; parameters: method as in PMID 25728526; settings: cited from earlier work
[8] = parameters: method as in PMID 28852909; settings: published literature; cited from earlier work
[9] = 1000 mg/m2, Day 1 (without alisertib), N 5
[10] = 1000 mg/m2, Day 8 (with alisertib), N 4
[11] = monotherapy trial of solid tumors

Nc1ccn([C@@H]2O[C@H](CO)[C@@H](O)C2(F)F)c(=O)n1 [gemcitabine]
Percentage extrapolated AUC0->inf, Mean ([1]; Day 1 (without alisertib), N 5): 0.14%
Percentage extrapolated AUC0->inf, Mean ([1]; Day 8 (with alisertib), N 4): 0.32%
Cmax [1, 9]: 7420 ng/mL
AUC(0-inf) [1, 9]: 3600 ng·h/mL
AUC(0-t) [1, 9]: 3600 ng·h/mL
Cmax [1, 10]: 6240 ng/mL
AUC(0-inf) [1, 10]: 3240 ng·h/mL
AUC(0-t) [1, 10]: 3230 ng·h/mL
Effect of co-administered alisertib on NCA PK parameters (day 1 vs day 8) [1]: No significant changes; also recorded: not significantly affected
Subjects who required dose delays ([2]; of 26 subjects): 16 subjects
Subjects who required dose omission ([2]; of 26 subjects): 14 subjects
Subjects with dose reductions ([2]; of 26 subjects): 5 subjects
Cycles given at a reduced dose ([2]; of 94 cycles delivered): 10 cycles
Cycles with delayed doses ([2]; of 94 cycles delivered): 43 cycles
Cycles with dose omissions ([2]; of 94 cycles delivered): 17 cycles

CC(=O)O[C@H]1C(=O)[C@@]2(C)[C@H]([C@H](OC(=O)c3ccccc3)[C@]3(O)C[C@H](OC(=O)[C@H](O)[C@@H](NC(=O)c4ccccc4)c4ccccc4)C(C)=C1C3(C)C)[C@]1(OC(C)=O)CO[C@@H]1C[C@@H]2O [paclitaxel]
mPFS (small cell lung cancer; 89 subjects in each arm): 2.17 months
Response rate (small cell lung cancer): 18%
mPFS (breast/ovarian cancer; breast/ovarian subjects): 4.7 months
Response rate (breast/ovarian cancer; breast/ovarian subjects, p = 0.38): 52%

COc1cc(Nc2ncc3c(n2)-c2ccc(Cl)cc2C(c2c(F)cccc2OC)=NC3)ccc1C(=O)O [alisertib]
Recommended phase 2 dose of alisertib combined with gemcitabine [3]: 50 mg
Cmax ([4]; Subject 22, day 8, unexpectedly high): 1750 ng/mL
Percentage extrapolated AUC0->inf, Mean ([4]; alisertib oral at RP2D with gemcitabine, cycle 1 day 8, plasma, N 4): 25.08%
Tmax ([4]; human, plasma, oral, Subject 24, day 8, unexpectedly long, read-out: Tmax): 24 h
Tmax ([4]; human, plasma, oral, other subjects here, day 8, read-out: Tmax): 1.5 to 4.5 h
Cmax ([4]; human, plasma, oral, observed here with gemcitabine, similar to previously reported, read-out: Cmax): 700 to 900 ng/mL
Tmax ([4]; human, plasma, po, alisertib oral at RP2D with gemcitabine, cycle 1 day 8, plasma, N 5, read-out: Tmax, Mean (converted)): 7.52 h
AUC(0-inf) ([4]; human, alisertib oral at RP2D with gemcitabine, cycle 1 day 8, plasma, N 4, read-out: AUC0->inf, Mean (converted)): 16300 ng·h/mL
AUC(0-t) ([4]; human, alisertib oral at RP2D with gemcitabine, cycle 1 day 8, plasma, N 5, read-out: AUC0->last, Mean (converted)): 11800 ng·h/mL
Cmax ([4]; human, alisertib oral at RP2D with gemcitabine, cycle 1 day 8, plasma, N 5, read-out: Cmax, Mean): 973 ng/mL
Subjects who underwent dose delays/omissions ([2]; of 26 subjects): 18 subjects
Subjects with dose reductions ([2]; of 26 subjects): 9 subjects
Cycles modified ([2]; of 94 cycles delivered): 27 cycles
Selectivity for AKA compared to Aurora Kinase B [5]: > 200 fold
Inhibition of selected CYPs (selected CYPs): not shown appreciable inhibition
RP2D of alisertib monotherapy [6]: 50 mg
Rate of SAEs [7, 11]: 43%
Treatment-related adverse events: anemia [7, 11]: 10%
Treatment-related adverse events: leukopenia [7, 11]: 21%
Treatment-related adverse events: neutropenia [7, 11]: 43%
Response rates ([7]; monotherapy, depending on the primary tumor subtype): 5–20%
RP2D of alisertib in combination with paclitaxel (breast/ovarian cancer; twice daily, schedule similar to the one reported here): 40 mg
Tmax [8]: 3 to 4 h

O=c1ccn([C@@H]2O[C@H](CO)[C@@H](O)C2(F)F)c(=O)[nH]1 [dFdU, 2′, 2′-difluorodeoxyuridine]
Percentage extrapolated AUC0->inf, Mean ([1]; Day 1 (without alisertib), N 5): 18.13%
Percentage extrapolated AUC0->inf, Mean ([1]; Day 8 (with alisertib), N 4): 15.73%
Cmax [1, 9]: 67900 ng/mL
AUC(0-inf) [1, 9]: 412000 ng·h/mL
AUC(0-t) [1, 9]: 363000 ng·h/mL
Cmax [1, 10]: 73800 ng/mL
AUC(0-inf) [1, 10]: 363000 ng·h/mL
AUC(0-t) [1, 10]: 343000 ng·h/mL
Effect of co-administered alisertib on NCA PK parameters (day 1 vs day 8) [1]: No significant changes; also recorded: not significantly affected
